Laboratory results: paper PMC12024912, “Druggability Studies of Benzene Sulfonamide Substituted Diarylamide (E3) as a Novel Diuretic” (Biomedicines, 2025)
Read-outs that look alike come from different tables or passages of the source.

Molecular target: T1, UT-B (Mus musculus, UniProt Q8VHL0)
T1 construct: endogenous in cells; host or cells: erythrocytes from wild-type C57BL/6 mice
T1 sequence (Q8VHL0 1-384): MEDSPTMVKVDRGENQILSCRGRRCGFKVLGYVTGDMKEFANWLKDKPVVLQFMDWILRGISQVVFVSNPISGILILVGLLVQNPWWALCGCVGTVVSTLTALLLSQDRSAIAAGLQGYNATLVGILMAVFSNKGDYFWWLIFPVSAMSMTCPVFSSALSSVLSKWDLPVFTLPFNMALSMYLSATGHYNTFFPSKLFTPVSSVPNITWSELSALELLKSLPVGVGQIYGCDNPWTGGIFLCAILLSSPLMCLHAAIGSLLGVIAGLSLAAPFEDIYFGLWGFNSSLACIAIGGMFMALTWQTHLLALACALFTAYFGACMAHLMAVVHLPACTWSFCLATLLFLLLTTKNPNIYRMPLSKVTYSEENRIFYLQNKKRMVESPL
Assay: Erythrocyte lysis assay for UT-B inhibition, mouse erythrocytes
Format: cell-based
Protocol: The erythrocyte lysis assay was modified from a method described previously. Erythrocytes obtained from veins were diluted to a hematocrit value of 2% in hyperosmolar PBS containing 1.25 mol/L urea and 5 mmol/L glucose and incubated at r.t. for 2 h. Then, 99 μL erythrocyte suspension from a reservoir was added to each well of a 96-well round-bottom microplate, then 1 μL of the testing compound (500, 125, 31.25, 7.81, 1.95, 0.488, 0.122, 0.031, 0.0076 μmol/L dissolved in DMSO) was added to erythrocyte suspension and shook it up with microoscillator for 1 min. Following 5 min incubation, 20 μL erythrocyte suspension was transferred into 96-well black microplates preloaded with 180 μL isotonic PBS (10 mM, urea-free). Erythrocyte lysis was monitored at 710 nm optical density (OD710) for 6 min, with lysis rates calculated using control values from the same plate as Equation (1):Lysis (%) = 100 × (Aneg − Atest)/(Aneg − Apos)(1) where Atest is the absorbance value from the test well, Aneg is from a negative no-lysis control well, and Apos is from a positive full-lysis control.

Which “maximum inhibition rate, mouse cells” value (erythrocyte lysis assay) does the source give for `CC(=O)c1ccc(C(=O)Nc2cccc(NS(=O)(=O)c3ccccc3)c2)o1` [Compound E3, 5-acetyl-N-(3-(phenylsulfonamido)phenyl)furan-2-carboxamide] here?
The value was “approximately 100%”.

What about the IC50 (erythrocyte lysis model, mouse, n = 3, means, read-out: IC50 (μM) Mouse) of the same compound?
The IC50 was 0.05 µM.

What about the IC50 (red blood cell lysis assay, read-out: IC50 for UT-B-promoted urea transport, mice) of the same compound?
The IC50 was 0.0477 µM.
